Results reported in patent US20150087722A1, “TREATMENT FOR BREAST TUMOR CELL METASTASIS” (China Medical University, priority 2012, published 2015).

Key:
[1] = test system: Normal Rat Macrophage Cell (RAW264.7 cell strain); experiment: MTT cell viability assay; format: cell-based
[2] = test system: MMP-9, MMP2 and uPA in breast tumor cells MDA-MB-231; experiment: Zymography enzyme activity assay; format: cell-based, human; details: MDA-MB-231, with dose increasing, FIG. 8B
Description: Referring to FIG. 8B, the Zymography enzyme activity assay was used to detect effect of the compound II in different doses on enzyme activities of the MMP-9, MMP2 and uPA in the breast tumor cells MDA-MB-231. Moreover, referring to FIG. 9, the Zymography enzyme activity assay was used to detect effect of the compound I on enzyme activities of the MMP-9 and MMP2 in the human normal breast cells MCF-10A stimulated by TNF-α/TGF-β. In the Zymography enzyme activity assay, the cells (1×10^6) were planted in a 6-well plate. The next day after the cells were adhered to the wall, the cells were cultured in a serum free DMEM culture medium at an atmosphere of 5% CO2 in an incubator at 37° C. for 24 h. The compound II in different doses were added into the DMEM culture medium. In other test groups, the compound I was added, TNF-α/TGF-β were added or the compound I and TNF-α/TGF-β were added into the DMEM culture medium, wherein the concentration of compound I and TNF-α/TGF-β were 2 mM and 10 ng/ml, respectively. The cells were cultured in the culture medium for 2 h and then washed with PBS. The cell culture medium was putted into a microcentrifuge tube and centrifuged for 10 min at 1500 rpm. The supernatant was taken to perform a protein gel electrophoresis (SDS-PAGE), so as to separate the proteins. […]

[3] = test system: ERK1/2, p38 and JNK1/2 in breast tumor cells; experiment: western blotting of MAPK proteins and phosphorylation; format: cell-based, human; details: 2 μM, 0-120 min
Protocol: The steps of western blotting include: washing cells with PBS twice at 4° C.; adding a lysis buffer and rubbing the cells by a rubbr policeman so as to lyse cells; putting the lysed cell solution into a 1.5 ml microcentrifuge tube and shaking for 1 min; centrifuging at 12000 rpm for 10 min and taking the supernatant; measuring concentration of the protein through a Bio-Rad protein assay kit; and storing the remained extracted protein solution at −70° C.; taking 100 μg protein solution and adding a SDS/protein loading buffer having the same volume, where the SDS/protein loading buffer has a concentration two times larger than the protein solution; boiling the mixture of the protein solution and the SDS/protein loading buffer at 100° C. for 10 min; cooling and loading the protein samples in each hole of gel; adjusting the voltage to 100 V and running the protein samples on the gel until the tracking dye in the sample buffer reaches the bottom of the gel; and subsequently transferring the protein from the gel using electrophoresis. […] Then luminescence image equipment was used, where the PVDF was placed onto a black metal plate by a plastic pincer and the face including protein was upwards, a 1:1 mixed Chemiluminesent Substrate was added into the membrane and the exposure time depends on the fluorescence intensity of antibodies. […]

[4] = test system: tumor inoculated nude mice; experiment: histopathological examination (H&E staining) of tumor inoculated nude mice; format: in vivo; details: 0.75 mg/Kg everyday, magnification 400×
Protocol: In the histopathological examination of tumor inoculated nude mice, the inoculated nude mice were examined through a histopathological H&E staining method. The tumor and internal organs were embedded in paraffin and sliced into slides having a thickness of […] by a slicer. Then after deparaffinizing, rehydrating and renaturating, the slide was washed with water twice and stained with Hematoxylin solution for 30-50 s. Then the slide was treated with 0.1% acetic acid-water and washed with water twice. At last the slide was stained with Eosin for 100 s and mounted with Histoclad.

[5] = test system: human normal breast cells MCF-10A stimulated by TNF-α/TGF-β; experiment: F-actin immunofluorescence staining (cell morphology); format: cell-based; details: 2 μM with TNF-α/TGF-β 10 ng/ml, 24 h
Description: FIG. 5 illustrates photographs taken at a 200× field under a fluorescence microscope, where a primary antibody F-actin is used and the cells are stained through the immunofluenrence staining method. Specifically, the photographs noted as “Control” in the first column show the morphologies of the human normal breast cells MCF-10A without being treated with the compound I and TNF-α/TGF-β. The photographs noted as “TNF-αTGF-β” in the second column show the morphologies of the human normal breast cells MCF-10A treated with TNF-α/TGF-β wherein the concentrations of TNF-α and TGF-β were 10 ng/ml. The photographs noted as “Compound I (2 μM)” in the third column show the morphologies of the human normal breast cells MCF-10A treated with the compound I having a concentration of 2 μM. The photographs noted as “TNF-α/TGF-β Compound I (2 μM)” in the fourth column show the morphologies of the human normal breast cells MCF-10A treated with the compound I, TNF-α and 10 TGF-β for 24 h, wherein the concentrations of the compound I, TNF-α and 10 TGF-β were 2 μM, 10 ng/ml and 10 ng/ml, respectively.

| SMILES | IC50 [1] [µM] | enzyme activities of MMP-2, MMP-9 and uPA [2] | phosphorylation of ERK1/2, p38 and JNK1/2 [3] | protein expression of ERK1/2, p38 and JNK1/2 [3] | mitosis state of tumor cells [4] | cell morphology (F-actin staining) [5] |
| --- | --- | --- | --- | --- | --- | --- |
| COC1=C(OC)C(=O)C(C)=C(C)C1=O [compound II] | 25.5 | decreased | probably inhibited | not affected | low mitosis state |  |
| COC1=C(OC)C(=O)C(C)=CC1=O [compound I] |  |  |  |  |  | still was epithelial-like |
